Measurements reported in patent US20160030562A1, “METHODS TO ENHANCE CANCER TREATMENT” (INTERNATIONAL BUSINESS MACHINES CORPORATION, priority 2011, published 2016).

Test system: breast cancer
Experiment: Treatment of Patient A (Stage II breast cancer)
Format: in vivo, human
Conditions: tamoxifen alone, 20 mg a day, year 3 of 5-year treatment
Protocol: Patient A has Stage II breast cancer. Patient A is in year 3 of a 5-year treatment with tamoxifen (tamoxifen prescribed at 20 mg a day for 5 years) but no regression in patient's breast cancer is apparent. Additional treatment is desired.
Cholesterol deprivation therapy is prescribed for Patient A. Patient A prefers a vegan diet, so Patient A's diet includes no meat or animal products, no saturated fats, and monounsaturated and polyunsaturated fats in moderation. Vegetable proteins, fruits, vegetables, and grains are primary food sources. A multivitamin with vitamin D and calcium is prescribed. […] CDT is prescribed for 8 months.
Patient A is treated with anti-CD cancer cell antibodies. Initial antibody loading dose of 1.3 g antibody preparation is administered as a two hour IV infusion, followed by weekly doses of about 0.6 g administered as a 30 minute infusion of the antibody preparation. Antibody and CDT treatments continue for 6 months.
As a result of combination treatment with CDT diet, statins, anti-CD cancer cell antibodies, and tamoxifen, Patient A's breast cancer regresses.

SMILES: CC/C(=C(\c1ccccc1)c1ccc(OCCN(C)C)cc1)c1ccccc1 [tamoxifen]
- regression of breast cancer: no regression
